Key:
Format in all cases: in vivo
[1] = tested on: Alfalfa; experiment: Preemergence herbicidal activity, % control of plant growth; details: Medicago sativa, pre-emergence, 504 h, 16 lb/acre, about 3 weeks
Description: (§1) By "preemergence" is meant that the compound is applied to the soil prior to emergence of the weed species sought to be controlled. This term, as used herein, also means the application of the herbicidal compounds falling within the scope of this disclosure to areas wherein useful or desirable plants are either growing or have been sown, but where the undesirable plants sought to be controlled have not as yet emerged.
(§2) In using the compound, seeds of the types of plants set forth in Table II were sown in fresh soil. In the preemergence test the soil was sprayed with a solution of the test compound immediately after the seeds were planted, and before any noticeable growth developed. The solution was about a 2 percent by weight solution of the compound in acetone and/or alcohol. The compound was applied at the rate of 16 pounds per acre of soil surface.
(§3) Approximately 3 weeks after spray application, the herbicidal activity of the compound was determined by visual observation of the treated area in comparison with untreated control areas. These observations are reported below in Table II wherein the average activity rating is reported as the percent control of plant growth.
(§4) *Preemergence test: compound applied at rate of 16 lb/acre

[2] = tested on: Barnyard Grass; experiment: as above; details: Echinochloa crus-galli, pre-emergence, 504 h; barnyard grass; 16 lb/acre; about 3 weeks
Description: as §1, §2, §3, §4

[3] = tested on: Cheatgrass; experiment: as above; details: Bromus tectorum, pre-emergence, 504 h, 16 lb/acre, about 3 weeks
Description: as §1, §2, §3, §4

[4] = tested on: Chickweed; experiment: as above; details: pre-emergence, 504 h, 16 lb/acre, about 3 weeks
Description: as §1, §2, §3, §4

[5] = tested on: Corn; experiment: as above; details: Zea mays, pre-emergence, 504 h, 16 lb/acre, about 3 weeks
Description: as §1, §2, §3, §4

[6] = tested on: Crabgrass; experiment: as above; details: Digitaria sanguinalis, pre-emergence, 504 h, 16 lb/acre, about 3 weeks
Description: as §1, §2, §3, §4

[7] = tested on: Cucumber; experiment: as above; details: Cucumis sativus, pre-emergence, 504 h, 16 lb/acre, about 3 weeks
Description: as §1, §2, §3, §4

[8] = tested on: Curled Dock; experiment: as above; details: pre-emergence, 504 h, 16 lb/acre, about 3 weeks
Description: as §1, §2, §3, §4

[9] = tested on: Foxtail; experiment: as above; details: Setaria, pre-emergence, 504 h, 16 lb/acre, about 3 weeks
Description: as §1, §2, §3, §4

[10] = tested on: Johnsongrass; experiment: as above; details: Sorghum halepense, pre-emergence, 504 h, 16 lb/acre, about 3 weeks
Description: as §1, §2, §3, §4

[11] = tested on: Lambsquarters; experiment: as above; details: Chenopodium album, pre-emergence, 504 h, 16 lb/acre, about 3 weeks
Description: as §1, §2, §3, §4

[12] = tested on: Nutgrass; experiment: as above; details: pre-emergence, 504 h, 16 lb/acre, about 3 weeks
Description: as §1, §2, §3, §4

[13] = tested on: Pigweed; experiment: as above; details: Amaranthus retroflexus, pre-emergence, 504 h, 16 lb/acre, about 3 weeks
Description: as §1, §2, §3, §4

[14] = tested on: Snapbeans; experiment: as above; details: pre-emergence, 504 h, 16 lb/acre, about 3 weeks
Description: as §1, §2, §3, §4

[15] = tested on: Velvetleaf; experiment: as above; details: Abutilon theophrasti, pre-emergence, 504 h, 16 lb/acre, about 3 weeks
Description: as §1, §2, §3, §4

[16] = tested on: Wild Oats; experiment: as above; details: Avena fatua, pre-emergence, 504 h, 16 lb/acre, about 3 weeks
Description: as §1, §2, §3, §4

[17] = tested on: Yellow Rocket; experiment: as above; details: pre-emergence, 504 h, 16 lb/acre, about 3 weeks
Description: as §1, §2, §3, §4

[18] = tested on: Alfalfa; experiment: Postemergence herbicidal activity, % control of plant growth; details: Medicago sativa, post-emergence, 264 h, 8 lb/acre, about 11 days
Description: (§5) By the term "postemergence" is meant that the compound is applied to the plant sought to be controlled after it has emerged from the soil surface. This term is also used to describe the application of herbicidally active compounds to soil surface in and around growing plants sought to be controlled for purposes of effecting root absorption by the undesirable plant species.
(§6) In the postemergence test the soil and developing plants were sprayed approximately 2 weeks after the seeds were sown. The compound was applied at the rate of 8 pounds per acre from about a 2 percent by weight solution of the test compound in acetone and/or alcohol. The postemergence herbicidal activity was measured in the same way as the preemergence activity; i.e. visual observation approximately 11 days after spraying, and expressed as the percent control of plant growth.
(§7) **Postemergence test: compound applied at rate of 8 lb/acre

[19] = tested on: Barnyard Grass; experiment: as above; details: Echinochloa crus-galli, post-emergence, 264 h, 8 lb/acre, about 11 days
Description: as §5, §6, §7

[20] = tested on: Cheatgrass; experiment: as above; details: Bromus tectorum, post-emergence, 264 h, 8 lb/acre, about 11 days
Description: as §5, §6, §7

[21] = tested on: Chickweed; experiment: as above; details: post-emergence, 264 h, 8 lb/acre, about 11 days
Description: as §5, §6, §7

[22] = tested on: Corn; experiment: as above; details: Zea mays, post-emergence, 264 h, 8 lb/acre, about 11 days
Description: as §5, §6, §7

[23] = tested on: Crabgrass; experiment: as above; details: Digitaria sanguinalis, post-emergence, 264 h, 8 lb/acre, about 11 days
Description: as §5, §6, §7

[24] = tested on: Cucumber; experiment: as above; details: Cucumis sativus, post-emergence, 264 h, 8 lb/acre, about 11 days
Description: as §5, §6, §7

[25] = tested on: Curled Dock; experiment: as above; details: post-emergence, 264 h, 8 lb/acre, about 11 days
Description: as §5, §6, §7

[26] = tested on: Foxtail; experiment: as above; details: Setaria, post-emergence, 264 h, 8 lb/acre, about 11 days
Description: as §5, §6, §7

[27] = tested on: Johnsongrass; experiment: as above; details: Sorghum halepense, post-emergence, 264 h, 8 lb/acre, about 11 days
Description: as §5, §6, §7

[28] = tested on: Lambsquarters; experiment: as above; details: Chenopodium album, post-emergence, 264 h, 8 lb/acre, about 11 days
Description: as §5, §6, §7

[29] = tested on: Nutgrass; experiment: as above; details: post-emergence, 264 h, 8 lb/acre, about 11 days
Description: as §5, §6, §7

[30] = tested on: Pigweed; experiment: as above; details: Amaranthus retroflexus, post-emergence, 264 h, 8 lb/acre, about 11 days
Description: as §5, §6, §7

[31] = tested on: Snapbeans; experiment: as above; details: post-emergence, 264 h, 8 lb/acre, about 11 days
Description: as §5, §6, §7

[32] = tested on: Velvetleaf; experiment: as above; details: Abutilon theophrasti, post-emergence, 264 h, 8 lb/acre, about 11 days
Description: as §5, §6, §7

[33] = tested on: Wild Oats; experiment: as above; details: Avena fatua, post-emergence, 264 h, 8 lb/acre, about 11 days
Description: as §5, §6, §7

[34] = tested on: Yellow Rocket; experiment: as above; details: post-emergence, 264 h, 8 lb/acre, about 11 days
Description: as §5, §6, §7

Structure (SMILES)	pest or weed control at 17933.6 g/ha [1] [%]	pest or weed control at 17933.6 g/ha [2] [%]	pest or weed control at 17933.6 g/ha [3] [%]	pest or weed control at 17933.6 g/ha [4] [%]	plant injury at 17933.6 g/ha [5] [%]	pest or weed control at 17933.6 g/ha [6] [%]	pest or weed control at 17933.6 g/ha [7] [%]	pest or weed control at 17933.6 g/ha [8] [%]	pest or weed control at 17933.6 g/ha [9] [%]	pest or weed control at 17933.6 g/ha [10] [%]	pest or weed control at 17933.6 g/ha [11] [%]	pest or weed control at 17933.6 g/ha [12] [%]	pest or weed control at 17933.6 g/ha [13] [%]	pest or weed control at 17933.6 g/ha [14] [%]	pest or weed control at 17933.6 g/ha [15] [%]	pest or weed control at 17933.6 g/ha [16] [%]	pest or weed control at 17933.6 g/ha [17] [%]	pest or weed control at 8966.8 g/ha [18] [%]	pest or weed control at 8966.8 g/ha [19] [%]	pest or weed control at 8966.8 g/ha [20] [%]	also measured
CCCCn1c(=O)[nH]c2cccnc2c1=O [3-butyl-pyrido[3,2-d]pyrimidine-2,4(1H,3H)-dione]	100	100	100	100	100	90	100	90	100	100	70	100	100	100	100	100	100	50	100	100	pest or weed control at 8966.8 g/ha [21]: 100%; plant injury at 8966.8 g/ha [22]: 50%; pest or weed control at 8966.8 g/ha [23]: 100%; pest or weed control at 8966.8 g/ha [24]: 100%; pest or weed control at 8966.8 g/ha [25]: 100%; pest or weed control at 8966.8 g/ha [26]: 100%; pest or weed control at 8966.8 g/ha [27]: 100%; pest or weed control at 8966.8 g/ha [28]: 10%; pest or weed control at 8966.8 g/ha [29]: 90%; pest or weed control at 8966.8 g/ha [30]: 90%; pest or weed control at 8966.8 g/ha [31]: 100%; pest or weed control at 8966.8 g/ha [32]: 100%; pest or weed control at 8966.8 g/ha [33]: 100%; pest or weed control at 8966.8 g/ha [34]: 90%
CCn1c(=O)[nH]c2cccnc2c1=O [3-ethyl-pyrido[3,2-d]pyrimidine-2,4(1H,3H)-dione]	100	40	100	100	10	100	100	100	40	60	100	10	100	100	90	100	100	50	10	30	pest or weed control at 8966.8 g/ha [21]: 100%; plant injury at 8966.8 g/ha [22]: 10%; pest or weed control at 8966.8 g/ha [23]: 80%; pest or weed control at 8966.8 g/ha [24]: 50%; pest or weed control at 8966.8 g/ha [25]: 90%; pest or weed control at 8966.8 g/ha [26]: 40%; pest or weed control at 8966.8 g/ha [27]: 60%; pest or weed control at 8966.8 g/ha [28]: 100%; pest or weed control at 8966.8 g/ha [29]: 10%; pest or weed control at 8966.8 g/ha [30]: 90%; pest or weed control at 8966.8 g/ha [31]: 80%; pest or weed control at 8966.8 g/ha [32]: 100%; pest or weed control at 8966.8 g/ha [33]: 0%; pest or weed control at 8966.8 g/ha [34]: 100%
